Assays:
[1] = system: THP-1 cells; assay: Annexin V/7-AAD staining (flow cytometry); type: cell-based; settings: sublethal concentration (5 μM)
Description: Treated cells were centrifuged at 300× g for 5 min, and the pellet was resuspended with 1% FBS in PBS (5 × 10^5 cells/mL). Annexin V dye (Merck Millipore, Burlington, MA, USA, MCH100105) was mixed with the cell suspension in a 1:1 ratio and the mixture incubated at RT for 20 min.

[2] = system: LSD1 and HDAC substrates in THP-1 cells; assay: Western blot of methylation and acetylation levels of LSD1 and HDAC substrates; type: cell-based; settings: 4 μM
[3] = target: LSD1 (Homo sapiens, UniProt O60341); assay: Cellular thermal shift assay (CETSA), LSD1; type: cell-based; parameters: endogenous in cells; host or cells: THP-1; settings: THP-1 cells, 1 h; 4 μM (methods, Figure 2), Figure S14 legend 500 nM
Description: (§1) THP-1 cells, 1 × 10^7 cells at a density of 1 × 10^6 cells/mL, were treated with 4 μM of test compounds (1 h, 37 °C, 5% CO2). Cells were centrifuged, and the pellet was resuspended with 1 × Phosphate Buffer Saline (Gibco, Grand Island, NY, USA, #10010023) containing 1 × Protease Inhibitor Cocktail (Cell Signaling Technology, Beverly, MA, USA, #5871) and 1 mM phenylmethylsulfonyl fluoride (PMSF, Sigma Aldrich, St. Louis, MO, USA, #10837091001). The suspension volume was divided equally and heated for 3 min at 43–64 °C in a T100 Thermal Cycler (Bio-rad, Hercules, CA, USA). For protein extraction, cells were snap-frozen using liquid nitrogen, thawed twice (25 °C, 1 min), then centrifuged (20,000× g, 15 min, 4 °C). Following centrifugation, protein containing supernatants were denatured at 70 °C for 10 min and loaded on SDS-PAGE gels (Bio-Rad, Hercules, CA, USA, 161-0317). After electrophoresis (100 V and 60 min), proteins were transferred onto PVDF membrane (Bio-Rad #1620177) at 200 mA for 180 min and immunoblotted with primary antibodies (1:10,000 dilution for anti-LSD1 Antibody ab129195 [EPR6825], 1:1000 dilution for Anti-HDAC6 Antibody CST 7558, 1:1000 dilution for Anti-HDAC1 Antibody ab53091, 1:1000 dilution for Anti-HDAC8 Antibody ab187139, 1:5000 dilution for Anti-beta Actin Antibody ab8227) overnight at 4 °C. The next day, membranes were incubated with HRP-conjugated secondary antibodies (1:5000 dilution for Abcam, Cambridge, UK, ab205718) for 1 h at room temperature. The signal was detected with BIORAD Chemi-Doc XRS+ System and by using Immobilon Forte Western HRP Substrate (WBLUF0500).

[4] = system: MDA-MB-231; assay: Wound healing assay, MDA-MB-231; type: cell-based; settings: 4 μM, 72 h, 1% FBS
Description: (§2) Figure S20. Wound healing assay with iDual and ricolinostat. (A) MDA-MB-231 and (B) DU-145 […]
(§3) and ricolinostat for 72 h cells grown in relative medium with (1%) FBS conditions. Wound healing is photographed with Nikon Eclipse TS 100 microscope. Wound/healed area is quantified using Image […]

[5] = system: THP-1; assay: Cell Titer-Glo cell viability, THP-1; type: cell-based; settings: Homo sapiens, THP-1; 120 h, ± standard deviation, three biological repeats; read-out: IC50 cell viability THP-1
[6] = system: THP-1 cells; assay: Caspase 3/7 and 7-AAD staining (flow cytometry); settings: sublethal concentration (5 μM)
[7] = system: DU-145; assay: Wound healing assay, DU-145; type: cell-based; settings: 4 μM, 72 h, 1% FBS
Description: as §2, §3

[8] = system: MOLM-13; assay: Combination treatment with doxorubicin, MOLM-13 cell viability; type: cell-based; settings: iDual 0.5 μM, iHDAC6 0.5 μM, GSK2879552 1.25 μM, ricolinostat […], 72 h then + doxorubicin 2 nM 48 h
[9] = target: T1, HDAC6 (Homo sapiens, UniProt Q9UBN7); assay: Cellular thermal shift assay (CETSA), HDAC6; type: cell-based; settings: THP-1 cells, 1 h; 4 μM (methods, Figure 2), Figure S14 legend 500 nM
T1 construct: endogenous in cells; host or cells: THP-1
T1 sequence (Q9UBN7 1-1215): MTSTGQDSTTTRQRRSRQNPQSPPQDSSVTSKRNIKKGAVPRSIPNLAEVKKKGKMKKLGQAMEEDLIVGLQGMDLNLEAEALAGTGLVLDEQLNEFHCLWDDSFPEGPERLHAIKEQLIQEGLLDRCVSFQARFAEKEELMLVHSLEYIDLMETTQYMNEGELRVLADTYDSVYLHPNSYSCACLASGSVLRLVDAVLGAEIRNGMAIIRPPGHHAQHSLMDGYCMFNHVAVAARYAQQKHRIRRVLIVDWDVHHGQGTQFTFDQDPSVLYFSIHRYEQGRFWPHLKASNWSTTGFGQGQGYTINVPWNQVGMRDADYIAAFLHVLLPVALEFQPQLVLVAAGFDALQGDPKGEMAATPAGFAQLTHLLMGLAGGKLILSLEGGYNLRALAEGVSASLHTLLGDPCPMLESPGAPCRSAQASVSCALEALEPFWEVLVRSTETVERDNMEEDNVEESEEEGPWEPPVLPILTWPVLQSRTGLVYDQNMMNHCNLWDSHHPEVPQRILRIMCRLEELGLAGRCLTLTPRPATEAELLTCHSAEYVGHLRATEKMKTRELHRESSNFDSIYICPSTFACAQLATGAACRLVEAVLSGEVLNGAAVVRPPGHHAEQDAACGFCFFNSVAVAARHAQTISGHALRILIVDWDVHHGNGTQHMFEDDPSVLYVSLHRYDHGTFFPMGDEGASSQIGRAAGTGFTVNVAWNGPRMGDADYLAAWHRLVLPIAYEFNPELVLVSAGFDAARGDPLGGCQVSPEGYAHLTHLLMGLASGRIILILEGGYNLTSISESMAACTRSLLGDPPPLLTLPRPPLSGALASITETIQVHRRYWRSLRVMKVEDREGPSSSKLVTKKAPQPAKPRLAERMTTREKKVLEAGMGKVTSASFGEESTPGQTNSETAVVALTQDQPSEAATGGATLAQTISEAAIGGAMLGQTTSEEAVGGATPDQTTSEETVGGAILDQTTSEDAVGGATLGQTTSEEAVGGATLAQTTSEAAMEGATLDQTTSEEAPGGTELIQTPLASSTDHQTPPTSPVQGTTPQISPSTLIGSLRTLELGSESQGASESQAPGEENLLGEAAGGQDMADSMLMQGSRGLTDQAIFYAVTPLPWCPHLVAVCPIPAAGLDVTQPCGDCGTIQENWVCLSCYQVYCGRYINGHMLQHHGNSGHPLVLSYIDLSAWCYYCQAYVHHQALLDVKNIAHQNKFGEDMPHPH
Description: as §1

[10] = target: T2, N-ter-GST-HDAC-6 (Homo sapiens, UniProt Q9UBN7); assay: HDAC-Glo I/II enzyme assay, HDAC6; type: biochemical
T2 construct: GST (N); purchased BPS Bioscience 50006
T2 sequence (Q9UBN7 1-1215): T1 sequence (Q9UBN7 1-1215)

Row | SMILES | apoptosis by annexin V/7-AAD staining, compound alone [1] | levels of the histone substrate H3K4me2 ([2]; 24 h) | nuclear histone H3 acetylation (H3K18ac and H3K27ac levels), change vs DMSO ([2]; 24 h (ricolinostat 0.75 μM or 4 μM)) | thermal stabilization of LSD1 (CETSA) [3] | wound healing capacity MDA-MB-231 [4] | IC50 [5] | apoptosis by caspase activity, compound alone [6] | wound healing capacity DU-145 [7] | cell viability after priming with compound and co-treatment with doxorubicin 2 nM [8] | thermal stabilization of HDAC6 (CETSA) [9] | HDAC6/HDAC1 isoform selectivity [10] | IC50 ([10]; ± standard error, three independent measurements)
1 | O=C(NO)c1ccc(CN2CCC(CN[C@@H]3C[C@H]3c3ccccc3)CC2)cc1 (relative stereo) [iDual] | did not induce apoptosis | increase | two-fold | increased thermal stability | slowed down | 16.3 ± 5.4 µM | did not induce apoptosis | slowed down | greatest decrease | increased thermal stability | – | –
2 | O=C(NO)c1ccc(CN2CCC(CNC3(c4ccccc4)CC3)CC2)cc1 [iHDAC6] | – | – | – | – | – | 9.7 ± 2.4 µM | – | – | relatively ineffective | stabilized HDAC6 only | > 30 fold | 0.23 ± 0.02 µM
